Assay results from patent US12492195B2, “Preparation method for and crystal form of 3-aryloxy-3-five-membered heteroaryl-propylamine compound” (Zhangzhou Pien Tze Huang Pharmaceutical Co., Ltd., priority 2020, dated 2025).
≈ marks a conversion by molar mass, not a printed value.

Tests used:
[1] = biological target: T1, TRPM8 (Homo sapiens, UniProt Q7Z2W7); assay: Manual patch clamp detection on TRPM8 channel; type: cell-based
T1 construct: expressed in transfected cells
Method: TRPM8 cells were cultured in a cell culture dish with a diameter of 35 mm, placed in an incubator in 5% CO2 at 37° C., and passaged at a ratio of 1:5 every 48 hours. The formula of medium was 90% DMEM (Invitrogen), 10% fetal bovine serum (Gibco), 2 mM L-glutamine, 50 μg/mL Hygromycin B (Invitrogen) and 5 μg/mL Blasticidine HCl (Invitrogen). Before electrophysiological patch clamp experiment, the cell culture medium was replaced with medium containing 1 μg/mL doxycycline for at least 16 hours to induce TRPM8 expression.
(§1) On the day of the experiment, the cell culture medium was aspirated, the cell were rinsed once with extracellular fluid, and then 0.25% Trypsin-EDTA (Invitrogen) solution was added, and digested at room temperature for 1-2 minutes. The digestion solution was aspirated, the cell were resuspended with extracellular fluid, and transferred to the experimental dish for electrophysiological recording for further experiment.
Preparation of menthol: 100.00 mM of DMSO stock solution of menthol was added to the extracellular solution, diluting 1000-fold to 100.00 μM of menthol solution.
Preparation of AMTB: 5 μL of DMSO stock solution (20.00 mM) of AMTB was added to 4995 μL of menthol solution (100.00 uM), diluting 1000-fold to obtain the final concentration of 20.00 μM AMTB to be tested.
Preparation of IC-1: 20.00 mM or 10.00 mM of stock solution of IC-1 was taken and added to the agonist solution of the corresponding channel, diluting 1000 or 2000-fold to the final concentration of 10.00 μM of […] solution to be tested.
(§2) HEK293 cells stably expressing TRP channels, the corresponding agonist-induced channel current was recorded by whole-cell patch clamp technique at room temperature. […] Clamp voltages and data recording were controlled and recorded by a computer using pClamp 11 software with the sampling frequency of 10 kHz and the filtering frequency of 2 kHz. […] After the current was evoked for more than 40 s and no attenuation was determined, the dosing process started. […]

[2] = Solubility of free compound Ic-1 in different solvents; type: physicochemical; conditions: thermodynamic from solid, room temperature
Method: The free base of the compound of formula Ic-1 was used as the starting material to obtain other salt forms. The free base of the compound of formula Ic-1 was an oily substance, and the solubility of the free base of the compound of formula Ic-1 in 11 common solvents was tested at room temperature. In the experiment, about 2 mg of compound Ic-1 oily sample was weighed into a 3-ml vial, and then the corresponding solvent was gradually added (50, 50, 200, 700 μLL) and shaken until the solution was clear. If the sample was still not dissolved after adding the solvent to 1 ml, the solvent was not added any more. The rough solubility range calculated according to the mass of the solid sample, the volume of the added solvent and the observed dissolution phenomenon was shown in Table 8.

[3] = biological target: T2, TRPV1 (Homo sapiens, UniProt Q8NER1); assay: Manual patch clamp detection on TRPV1 channel; type: cell-based; conditions: HEK293, Capsaicin-induced current
T2 construct: expressed in transfected cells
Method: TRPV1 cells were cultured in a cell culture dish with a diameter of 35 mm, placed in a 37° C., 5% CO2 incubator, and passaged at a ratio of 1:5 every 48 hours. Medium formula: 90% DMEM (Invitrogen), 10% Fetal bovine serum (Gibco). 2 mM L-glutamine, 50 μg/mL Hygromycin B (Invitrogen) and 5 μg/mL Blasticidine HCl (Invitrogen). Before electrophysiological patch clamp experiments, the cell culture medium was replaced with medium containing 1 μg/mL Doxycycline for at least 16 hours to induce the expression of TRPV1.
as §1, with “experiment. […]” for “experiment.”
as §2

T1 sequence (Q7Z2W7 whole entry, species assumed): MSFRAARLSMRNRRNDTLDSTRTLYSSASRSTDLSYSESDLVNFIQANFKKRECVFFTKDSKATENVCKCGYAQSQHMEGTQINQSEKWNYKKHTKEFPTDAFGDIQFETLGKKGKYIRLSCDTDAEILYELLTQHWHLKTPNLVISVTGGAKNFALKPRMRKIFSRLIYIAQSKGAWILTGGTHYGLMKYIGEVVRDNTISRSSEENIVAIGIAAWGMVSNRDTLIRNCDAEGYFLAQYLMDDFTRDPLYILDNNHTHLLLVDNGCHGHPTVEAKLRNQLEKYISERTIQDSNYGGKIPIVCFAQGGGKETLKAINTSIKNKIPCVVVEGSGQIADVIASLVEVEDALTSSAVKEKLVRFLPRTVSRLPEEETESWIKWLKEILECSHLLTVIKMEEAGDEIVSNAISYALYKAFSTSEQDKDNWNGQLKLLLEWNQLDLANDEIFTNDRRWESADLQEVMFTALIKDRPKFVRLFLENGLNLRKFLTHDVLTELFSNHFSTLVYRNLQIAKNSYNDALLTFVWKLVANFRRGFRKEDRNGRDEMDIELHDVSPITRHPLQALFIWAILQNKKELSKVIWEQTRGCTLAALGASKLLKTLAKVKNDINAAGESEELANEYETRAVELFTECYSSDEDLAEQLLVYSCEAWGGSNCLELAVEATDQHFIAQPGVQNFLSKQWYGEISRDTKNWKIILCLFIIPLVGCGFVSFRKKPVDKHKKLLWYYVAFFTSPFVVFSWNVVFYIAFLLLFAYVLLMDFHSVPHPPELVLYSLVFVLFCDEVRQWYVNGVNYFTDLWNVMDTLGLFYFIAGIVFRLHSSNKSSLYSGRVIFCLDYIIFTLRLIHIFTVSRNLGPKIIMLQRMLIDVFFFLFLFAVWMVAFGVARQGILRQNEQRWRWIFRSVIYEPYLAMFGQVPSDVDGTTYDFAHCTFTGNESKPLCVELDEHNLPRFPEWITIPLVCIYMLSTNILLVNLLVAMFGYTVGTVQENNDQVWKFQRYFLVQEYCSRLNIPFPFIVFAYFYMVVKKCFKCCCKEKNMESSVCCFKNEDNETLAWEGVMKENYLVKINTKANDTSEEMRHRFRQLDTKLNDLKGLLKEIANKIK
T2 sequence (Q8NER1 whole entry, species assumed): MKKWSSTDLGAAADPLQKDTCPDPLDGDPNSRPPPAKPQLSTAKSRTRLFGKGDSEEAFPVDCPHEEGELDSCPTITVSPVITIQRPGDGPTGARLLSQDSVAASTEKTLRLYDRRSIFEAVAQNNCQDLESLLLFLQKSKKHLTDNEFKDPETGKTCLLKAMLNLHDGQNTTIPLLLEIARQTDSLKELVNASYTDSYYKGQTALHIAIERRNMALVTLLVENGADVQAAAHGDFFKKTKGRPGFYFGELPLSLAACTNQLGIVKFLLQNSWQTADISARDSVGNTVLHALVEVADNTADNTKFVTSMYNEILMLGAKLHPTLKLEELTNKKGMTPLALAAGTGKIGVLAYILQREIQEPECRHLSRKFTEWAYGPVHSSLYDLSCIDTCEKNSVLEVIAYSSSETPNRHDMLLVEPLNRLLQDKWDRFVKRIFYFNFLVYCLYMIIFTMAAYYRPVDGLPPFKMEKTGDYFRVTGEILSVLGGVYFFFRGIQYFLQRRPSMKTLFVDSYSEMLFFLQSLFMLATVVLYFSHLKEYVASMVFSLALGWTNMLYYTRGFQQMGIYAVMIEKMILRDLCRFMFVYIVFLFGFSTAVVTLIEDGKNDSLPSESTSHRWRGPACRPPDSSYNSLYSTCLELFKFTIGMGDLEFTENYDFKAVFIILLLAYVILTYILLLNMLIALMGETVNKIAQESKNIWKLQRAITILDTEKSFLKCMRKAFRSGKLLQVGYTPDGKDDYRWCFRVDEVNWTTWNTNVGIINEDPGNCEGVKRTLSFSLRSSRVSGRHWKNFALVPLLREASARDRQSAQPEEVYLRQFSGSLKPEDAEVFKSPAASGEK

inhibition at 10 µM ([1]; 10.00 μM, HEK293, menthol-induced current): 41.1%
IC50 ([1]; read-out: IC50 of the compound to TRPM8): > 10 µM
solubility ([2]; aqueous with cosolvent or surfactant or cyclodextrin, Methanol:Water (1:1)): > 38 mg/mL
solubility ([2]; organic solvent or mixture, Acetone): > 46 mg/mL
solubility ([2]; organic solvent or mixture, Acetonitrile): > 54 mg/mL
solubility ([2]; organic solvent or mixture, Dimethyl sulfoxide): > 38 mg/mL
solubility ([2]; organic solvent or mixture, Ethanol): > 42 mg/mL
solubility ([2]; organic solvent or mixture, Ethyl acetate): > 36 mg/mL
solubility ([2]; organic solvent or mixture, Methanol): > 38 mg/mL
solubility ([2]; organic solvent or mixture, Methyl isobutyl ketone): > 42 mg/mL
solubility ([2]; organic solvent or mixture, Tetrahydrofuran): > 40 mg/mL
solubility ([2]; organic solvent or mixture, n-Heptane): 7.6 to 23 mg/mL (≈ 26.4 to 80 mM)
solubility ([2]; Water): < 2 mg/mL
inhibition at 10 µM [3]: 22.5%
SMILES: CNCC[C@H](Oc1cccc2ccoc12)c1cccs1 [IC-1, (S)-3-(Benzofuran-7-yloxy)-N-methyl-3-(thiophen-2-yl)propan-1-amine]
